These results are taken from US7026334B1, “Thiazolidine compounds and pharmaceutical compositions exhibiting thrombopoietin receptor agonism” (Shionogi & Co., Ltd., priority 1999, dated 2006).

The first assay concerns BaF-BO3 cells. Put plainly: Growth of the parental cell line BaF-BO3 not expressing TPOR. The settings on record: FIG. 3. The format is cell-based.
In the case of “TPO: Thrombopoietin, polypeptide cytokine composed of 332 amino acids; Human TPO (hTPO) purchased from R&D Systems”, the “proliferation of parental BaF cells bearing no TPOR” value was “dose not have any ability to support proliferation”.

For a further assay, the target named is T1, human TPO receptor (hTPOR) (Homo sapiens, UniProt P40238).
T1 construct: expressed in transfected cells; host or cells: BaF-BO3 (murine IL-3 dependent pro-B cell line), giving BaF/hTPOR
T1 sequence (P40238 26-635): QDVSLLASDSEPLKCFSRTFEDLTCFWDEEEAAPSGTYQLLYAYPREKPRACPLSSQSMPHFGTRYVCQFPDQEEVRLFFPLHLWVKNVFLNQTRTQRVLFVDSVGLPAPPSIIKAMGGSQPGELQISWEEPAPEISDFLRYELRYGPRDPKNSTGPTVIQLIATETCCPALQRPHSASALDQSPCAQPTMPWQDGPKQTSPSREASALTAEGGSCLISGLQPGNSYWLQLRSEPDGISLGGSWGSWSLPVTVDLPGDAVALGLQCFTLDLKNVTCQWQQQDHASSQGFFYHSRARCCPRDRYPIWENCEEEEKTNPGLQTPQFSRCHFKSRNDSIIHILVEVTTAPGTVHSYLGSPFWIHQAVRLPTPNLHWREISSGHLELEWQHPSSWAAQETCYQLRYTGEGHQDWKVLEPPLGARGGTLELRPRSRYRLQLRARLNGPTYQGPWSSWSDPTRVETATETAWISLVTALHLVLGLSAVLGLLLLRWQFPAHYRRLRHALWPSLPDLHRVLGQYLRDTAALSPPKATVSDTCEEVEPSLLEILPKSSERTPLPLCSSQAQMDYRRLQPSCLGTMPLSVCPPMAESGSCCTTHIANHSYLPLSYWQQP
Put plainly: Proliferation of TPO dependent BaF/hTPOR cells (thrombopoietic activity, WST-1). The class given is cell-based. The settings on record: 20 hours + 4 hours WST-1, absorbance at 450 nm, ED50 = half concentration of the concentration showing the maximum thrombopoietic activity. The text has this:
The TPO dependent BaF/hTPOR cell line which was established by introducing human TPO receptor (hTPOR) into BaF-BO3 cells according to Collins et al (J. Cell. Physiol., 137:293-298 (1988)) was used to test the thrombopoietic activity of the present compound (B-17). The DNA sequences and encoded peptide sequences for human hTPOR have been described by Vigon et al (Proc. Natl. Acad. Sci. USA, 89:5640-5644 (1992)). […] BAF/hTPOR cells were maintained in RPMI medium and WEHI-3B conditioned medium as a source of murine interleukin-3 (IL-3). These cells were washed and resuspended in RPMI medium without a source of murine IL-3 and seeded into each well of 96-well microtiter plates at a density of […] cells per well in the absence or presence of various concentration of hTPO or the present compound. After incubation at 37° C. for 20 hours in the 5% CO2 incubator, 10% WST-1 reagent (Takara Biomedicals, Japan) was added to each wells and the cells were further incubated for 4 hours. Table 24 exemplifies the ED50 for tested compounds of the present invention, wherein the ED50 is the half concentration of the concentration showing the maximum thrombopoietic activity
As a reminder, the EC50 is the concentration that produces a half-maximal response. Turning to `O=C1NC(=S)S/C1=C\c1ccc(C(=O)Nc2nc(-c3ccc(Cl)c(Cl)c3)cs2)cc1` [Compound A-1], the 50% effective concentration (EC50) came to 12 nM.

Regarding `O=C1NC(=S)SC1=Cc1ccc(C(=O)Nc2nc(-c3ccccc3)cs2)cc1` [Compound A-2], the EC50 was found to be 58 nM.

Turning to `O=C1NC(=S)SC1=Cc1ccc(C(=O)Nc2nc(-c3ccc(F)cc3)cs2)cc1` [Compound A-3], the EC50 came to 17 nM. The same measure, in the same setting: the value for `O=C1NC(=S)SC1=Cc1ccc(C(=O)Nc2nc(-c3ccc(Br)cc3)cs2)cc1` [Compound A-4] was 36 nM; that for `O=C1NC(=S)SC1=Cc1ccc(C(=O)Nc2nc(-c3ccc(Cl)cc3)cs2)cc1` [Compound A-5] was 22 nM; that for `Cc1ccc(-c2csc(NC(=O)c3ccc(C=C4SC(=S)NC4=O)cc3)n2)cc1` [Compound A-6] was 45 nM. `O=C1NC(=S)SC1=Cc1ccc(C(=O)Nc2nc(-c3ccc(-c4ccccc4)cc3)cs2)cc1` [Compound A-7]: the half-maximal effective concentration (EC50) turned out to be 60 nM. Same read-out and setting: the result for `CC(C)(C)c1ccc(-c2csc(NC(=O)c3ccc(/C=C4\SC(=S)NC4=O)cc3)n2)cc1` [Compound A-11] reads 31 nM. Take `COC(=O)c1ccc(-c2csc(NC(=O)c3ccc(/C=C4\SC(=S)NC4=O)cc3)n2)cc1` [Compound A-12]: the EC50 is 11 nM. On the same count and under the same terms, the result for `O=C1NC(=S)S/C1=C\c1ccc(C(=O)Nc2nc(-c3ccc([N+](=O)[O-])cc3)cs2)cc1` [Compound A-14] reads 15 nM. In the case of `O=C1NC(=S)S/C1=C\c1ccc(C(=O)Nc2nc(-c3ccc(Cl)s3)cs2)cc1` [Compound A-15], the EC50 turned out to be 26 nM. Turning to `O=C1NC(=S)S/C1=C\c1ccc(C(=O)Nc2nc(-c3cccs3)cs2)cc1` [Compound A-16], the 50% effective concentration (EC50) turned out to be 49 nM.

`O=C1NC(=S)S/C1=C\c1ccc(C(=O)Nc2nc(-c3ccc(F)c(F)c3)cs2)cc1` [Compound A-20]: the EC50 came to 29 nM.

Turning to `O=C1NC(=S)S/C1=C\c1ccc(C(=O)Nc2nc(-c3ccc(Br)s3)cs2)cc1` [Compound A-21], the EC50 stood at 41 nM. `CC(C)OC(=O)c1ccc(-c2csc(NC(=O)c3ccc(/C=C4\SC(=S)NC4=O)cc3)n2)cc1` [Compound A-25]: the half-maximal effective concentration (EC50) stood at 99 nM. Still for that read-out and setting: the value for `CCCCOC(=O)c1ccc(-c2csc(NC(=O)c3ccc(/C=C4\SC(=S)NC4=O)cc3)n2)cc1` [Compound A-26] was 72 nM. For `CCOC(=O)c1sc(NC(=O)c2ccc(/C=C3\SC(=S)NC3=O)cc2)nc1-c1ccccc1` [Compound A-32], the concentration for a half-maximal effect (EC50) is 77 nM. The same measure, in the same setting: the result for `Cc1sc(NC(=O)c2ccc(/C=C3\SC(=S)NC3=O)cc2)nc1-c1ccc(Cl)cc1` [Compound A-37] reads 27 nM. On to `CCc1sc(NC(=O)c2ccc(/C=C3\SC(=S)NC3=O)cc2)nc1-c1ccccc1` [Compound A-38], for which the half-maximal effective concentration (EC50) was determined as 47 nM.

Take `COC(=O)c1sc(NC(=O)c2ccc(/C=C3\SC(=S)NC3=O)cc2)nc1-c1ccc(F)cc1` [Compound A-42]: the EC50 turned out to be 72 nM.

With `O=C1NC(=S)S/C1=C\c1ccc(C(=O)Nc2nc(-c3ccc(F)cc3)c(CCCl)s2)cc1` [Compound A-43], the EC50 amounted to 73 nM.

With `O=C1NC(=S)S/C1=C\c1ccc(C(=O)Nc2nc3c(s2)CCc2ccccc2-3)cc1` [Compound A-49], the EC50 amounted to 35 nM. On the same count and under the same terms, the value for `O=C1NC(=S)S/C1=C\c1ccc(C(=O)Nc2nc3c(s2)CCCc2ccccc2-3)cc1` [Compound A-50] was 26 nM; that for `O=C1NC(=S)S/C1=C\c1ccc(C(=O)Nc2nc(-c3cccc(C(F)(F)F)c3)cs2)cc1` [Compound A-53] was 23 nM; that for `Cc1cc(Br)sc1-c1csc(NC(=O)c2ccc(/C=C3\SC(=S)NC3=O)cc2)n1` [Compound A-56] was 96 nM. `O=C1NC(=S)S/C1=C\c1ccc(C(=O)Nc2nc3c(s2)CSc2ccccc2-3)cc1` [Compound A-59]: the half-maximal effective concentration (EC50) came to 84 nM. For the compound `O=C1NC(=S)S/C1=C\c1ccc(C(=O)Nc2nc(-c3ccc(C(F)(F)F)cc3)cs2)cc1` [Compound A-61], the EC50 was 69 nM. The same measure, in the same setting: the result for `O=C1NC(=S)S/C1=C\c1ccc(C(=O)Nc2nc(-c3cccc(OC(F)(F)F)c3)cs2)cc1` [Compound A-63] reads 16 nM; that for `O=C1NC(=S)S/C1=C\c1ccc(C(=O)Nc2nc(-c3cccc(F)c3)cs2)cc1` [Compound A-64], 47 nM.

`O=C1NC(=S)S/C1=C\c1ccc(C(=O)Nc2nc(-c3ccccc3F)cs2)cc1` [Compound A-67]: the half-maximal effective concentration (EC50) worked out at 50 nM. The same measure, in the same setting: the value for `O=C1NC(=S)S/C1=C\c1ccc(C(=O)Nc2nc(-c3ccc(F)cc3F)cs2)cc1` [Compound A-70] was 20 nM; that for `O=C1NC(=S)S/C1=C\c1ccc(C(=O)Nc2nc(-c3cc(F)c(F)cc3F)cs2)cc1` [Compound A-71] was 80 nM. As to `O=C1NC(=S)S/C1=C\c1ccc(C(=O)Nc2nc(-c3cccc(Br)c3)cs2)cc1` [Compound A-72], the 50% effective concentration (EC50) stood at 35 nM. The same measure, in the same setting: the result for `O=C1NC(=S)S/C1=C\c1ccc(C(=O)Nc2nc(-c3ccc(I)cc3)cs2)cc1` [Compound A-73] reads 70 nM. `O=C1NC(=O)C(=Cc2ccc(C(=O)Nc3nc(-c4ccccc4)cs3)cc2)S1` [Compound B-1]: the EC50 worked out at 71 nM.

As to `O=C1NC(=O)C(=Cc2ccc(C(=O)Nc3nc(-c4ccc(F)cc4)cs3)cc2)S1` [Compound B-2], the concentration for a half-maximal effect (EC50) came to 11 nM. On the same count and under the same terms, the value for `O=C1NC(=O)C(=Cc2ccc(C(=O)Nc3nc(-c4ccc(Br)cc4)cs3)cc2)S1` [Compound B-3] was 47 nM; that for `O=C1NC(=O)C(=Cc2ccc(C(=O)Nc3nc(-c4ccc(Cl)cc4)cs3)cc2)S1` [Compound B-4] was 37 nM. As for `Cc1ccc(-c2csc(NC(=O)c3ccc(C=C4SC(=O)NC4=O)cc3)n2)cc1` [Compound B-5], the EC50 was 47 nM. Regarding `O=C1NC(=O)C(=Cc2ccc(C(=O)Nc3nc(-c4ccc(-c5ccccc5)cc4)cs3)cc2)S1` [Compound B-6], the EC50 came to 72 nM. Take `O=C1NC(=O)/C(=C/c2ccc(C(=O)Nc3nc(-c4ccc(Cl)s4)cs3)cc2)S1` [Compound B-14]: the half-maximal effective concentration (EC50) was 23 nM. Still for that read-out and setting: the value for `O=C1NC(=O)/C(=C/c2ccc(C(=O)Nc3nc(-c4cccs4)cs3)cc2)S1` [Compound B-15] was 77 nM; that for `O=C1NC(=O)/C(=C/c2ccc(C(=O)Nc3nc(-c4ccc(Cl)c(Cl)c4)cs3)cc2)S1` [Compound B-16] was 20 nM; that for `O=C1NC(=O)/C(=C/c2ccc(C(=O)Nc3nc(-c4ccc(F)c(F)c4)cs3)cc2)S1` [Compound B-18] was 16 nM. Same read-out and setting: the value for `O=C1NC(=O)/C(=C/c2ccc(C(=O)Nc3nc4c(s3)CCc3ccccc3-4)cc2)S1` [Compound B-21] was 84 nM; that for `O=C1NC(=O)C(=Cc2ccc(C(=O)Nc3nc(-c4ccc(Cl)c(Cl)c4)cs3)cc2)O1` [Compound C-1] was 68 nM; that for `O=C1NC(=O)C(=Cc2ccc(C(=O)Nc3nc(-c4ccc(Cl)c(Cl)c4)cs3)s2)S1` [Compound E-2] was 62 nM.
